Key:
[1] = test system: KB cells (human pharyngeal SCC); experiment: Effect of POR alone on KB tumor volume in nude mice (Example IV); assay type: in vivo; conditions: POR alone 2.50, 5.0, 7.5, 10.0 mg/kg ip vs saline control; days 0-13; FIG. 1
Protocol: KB cells (human pharyngeal SCC, American Type Culture Collection, Rockville, Md.) were maintained in culture medium consisting of 90% Minimal Essential medium (Gibco BRL, Grand Island, N.Y.) and 10% fetal bovine serum (Hyclone, Logan, Utah) with the addition of 10 nM nonessential amino acid (Gibco BRL) and antibiotics (penicillin, streptomycin: Gibco BRL). The cells were grown as monolayers in Falcon T150 flasks (Becton Dickinson, Franklin Lakes, N.J.) in a 37° C. humidified incubator with 5% CO2.
The effect of treatment on tumor volumes was determined using analysis of variance. […]
Fifteen mice, each with 4 tumor inoculations, were divided into 4 treatment groups and 1 control group. […] The 3 orthogonal diameters of the tumors were measured at days 0, 2, 4, 6, 8, 10, and 13 following POR injection. […]

[2] = test system: KB cells (human pharyngeal SCC); experiment: POR with PDL limited to tumor area, KB tumors in nude mice (Example V); assay type: in vivo; conditions: for effect of treatment on mean tumor volume (analysis of variance): repeated two days later, FIG. 2
Protocol: (§1) KB cells (human pharyngeal SCC, American Type Culture Collection, Rockville, Md.) were maintained in culture medium consisting of 90% Minimal Essential medium (Gibco BRL, Grand Island, N.Y.) and 10% fetal bovine serum (Hyclone, Logan, Utah) with the addition of […] nonessential amino acid (Gibco BRL) and antibiotics (penicillin, streptomycin: Gibco BRL). The cells were grown as monolayers in Falcon T150 flasks (Becton Dickinson, Franklin Lakes, N.J.) in a 37° C. humidified incubator with 5% CO2.
(§2) Prior to inoculation, the cells were rinsed with PBS lacking calcium and magnesium (Gibco BRL), trypsinized (Gibco BRL), counted, centrifuged at 1000 rpm for 6 min., and resuspended in normal saline for a final concentration of 1,000,000 cells/ml.
(§3) Six- to seven-week-old nude mice (Charles River Labs, Wilmington, Mass.) were sterilely housed and fed ad libitum. Intradermal inoculation of 0.05 ml of cell suspension (50,000 cells) was performed under general anesthesia (ether) using a 30 gauge hypodermic needle. After 5 days, the majority of the tumors were visually apparent and palpable.
(§4) The effect of treatment on tumor volumes was determined using analysis of variance. Multiple comparisons were performed using the Student-Newman-Keuls (SNK) test. P values less than 0.05 are considered significant.
Sixteen mice, each with 4 tumor inoculations, were divided into 3 treatment groups and 1 control group. On day 6 following tumor inoculation, the treatment groups received (1) ip POR only (10 mg/kg), (2) ip saline and PDL limited to tumor area (585 nm, 10 J/cm^2, 300-500 μs; Model SPTL-1a, Candela Corporation, Wayland, Mass.), or (3) ip POR (10 mg/kg) and PDL limited to the tumor area (585 nm, 10 J/cm^2, 300-500 μs). The control group received ip saline injections only. PDL irradiation was performed 15 min. after administration of POR or vehicle, using a laser handpiece that produced a 5 mm diameter irradiated spot with a uniform energy distribution on the tumor surface. An aluminum plate with holes of various diameters was used to shield areas beyond the tumor border. […]

[3] = test system: KB cells (human pharyngeal SCC); experiment: POR with PDL extending beyond tumor area, KB tumors in nude mice (Example VI); assay type: in vivo
Protocol: as §1, §2, §3, §4
Twelve mice with 6 tumor inoculations were divided into 3 treatment groups and 1 control group. On day 5 following inoculation, the 4 groups were treated as in Example V except that the field of irradiation was extended to include a 2 to 3 mm periphery beyond the tumor edge. In addition, on the second treatment day, the fluence was raised from 10 to 15 J/cm^2. Tumor volume measurements were performed on days 0, 2, 4, 6, 8, 10, and 12 following the first treatment. Mice were weighed on day 0 and 6 following the first treatment. There were two anesthesia related deaths: one mouse from the control group and one mouse from the group receiving both PDL and POR died before day 10 and were therefore excluded from analysis.

normal skin tissue = experiment: POR with PDL treatment of normal skin tissue, histologic evaluation (Example VII); assay type: in vivo, Syrian golden hamsters; conditions: PDL 15 min. after ip POR; biopsies 10 min. or 2 days after irradiation; hamster flank
Protocol: The effect on normal skin tissue of PDL irradiation with or without POR was determined using 6 adult Syrian golden hamsters. The hamsters were divided into two groups, and hair of each animal was shaved from an area of the flank. One group was irradiated with the PDL 15 min. after ip injection of POR, and the other group was irradiated without POR administration. Biopsies of treated sites were taken 10 min. or 2 days after irradiation. Specimens were fixed with formalin, embedded in paraffin, sectioned, and stained (H&E) for histologic evaluation.

[4] = test system: human squamous cancer cells; experiment: PDL and POR on human squamous cancer cell tumors in hamster cheek pouch (Example VIII); assay type: in vivo, hamsters; conditions: combined PDL (588 nm) and POR versus PDL only, FIG. 5
Text: In this example, tumors were produced in the cheek pouches of hamsters by transplantation of human squamous cancer cells according to methods well known in the art. Hamsters were divided into four treatment groups: (1) control, (2) bioreductive agent porfiromycin only (POR), (3) 588 nm pulsed dye laser only (PDL), and (4) combined PDL and POR.

hypoxic cells = conditions: compared with mitomycin C; cited from earlier work
[5] = Body weight / systemic toxicity monitoring of POR in tumor-bearing mice (Example IV); conditions: POR 2.50-10.0 mg/kg ip; mice weighed days 0-13
Protocol: Fifteen mice, each with 4 tumor inoculations, were divided into 4 treatment groups and 1 control group. Five days after tumor inoculation, the 4 treatment groups received 2.50, 5.0, 7.5, and 10.0 mg/kg intraperitoneal (ip) injections of POR (Vion Pharmaceuticals, Inc., New Haven, Conn.) dissolved in sterile water. […] All mice were anesthetized during ip injections and tumor measurements. […] The mice were weighed at the time of each tumor measurement to monitor for any systemic toxicity of POR.

## CO[C@@]12[C@H](COC(N)=O)C3=C(C(=O)C(C)=C(N)C3=O)N1C[C@H]1[C@@H]2N1C (stereo partly drawn) [POR, porfiromycin]
[1]
  effect of treatment on mean tumor volume (analysis of variance): no significant effect of treatment at any point in time
[2]; ip POR 10 mg/kg and PDL limited to tumor area (585 nm, 10 J/cm^2)
  effect of treatment on mean tumor volume (analysis of variance): no significant effect of treatment at any point in time
[2]; ip POR 10 mg/kg and PDL limited to tumor area, gross and histological
  skin sloughing / epithelial necrosis in laser treatment groups: no gross evidence of skin sloughing or any histological evidence of epithelial necrosis
[2]; ip POR only 10 mg/kg, days 0-13
  effect of treatment on mean tumor volume (analysis of variance): no significant effect of treatment at any point in time
[3]; POR 10 mg/kg ip with PDL including 2 to 3 mm margin (10 then 15 J/cm^2), all tumors, FIG. 3
  tumor volume versus controls (SNK test): differed from the controls from day 6 onward
[3]; POR alone 10 mg/kg ip, all tumors, FIG. 3
  tumor volume versus controls (SNK test): differed from the controls from day 6 onward
[3]; all tumors, PDL including tumor margin, FIG. 3
  tumor volume, PDL with POR versus PDL without POR: no significance between the effects of PDL irradiation with and without POR at any time
[3]; only the largest 33% of tumors on day 0, PDL including tumor margin, FIG. 4
  tumor volume, PDL with POR versus PDL without POR (SNK test): significant difference between PDL with and without POR at all days after day 6
Normal skin tissue
  damage to normal skin after PDL irradiation (histologic and clinical): no microscopic or clinical evidence of epithelial necrosis or other damage to tissue structures beyond the blood vessels
[4]
  tumor regression and remission: tumor regression and remission following laser vascular targeting is enhanced
Hypoxic cells
  preferential toxicity for hypoxic cells: greater for POR than mitomycin C
[5]
  effect of treatment on body weight / acute toxicity: no significant effect of treatment on body weight, or any other indication of acute toxicity
